The source made the active and inactive calls.
Columns and labels:
[1] = target: T1, Acyl-CoA dehydrogenase family member 11 (Homo sapiens, UniProt Q709F0)
T1 sequence (Q709F0 whole entry): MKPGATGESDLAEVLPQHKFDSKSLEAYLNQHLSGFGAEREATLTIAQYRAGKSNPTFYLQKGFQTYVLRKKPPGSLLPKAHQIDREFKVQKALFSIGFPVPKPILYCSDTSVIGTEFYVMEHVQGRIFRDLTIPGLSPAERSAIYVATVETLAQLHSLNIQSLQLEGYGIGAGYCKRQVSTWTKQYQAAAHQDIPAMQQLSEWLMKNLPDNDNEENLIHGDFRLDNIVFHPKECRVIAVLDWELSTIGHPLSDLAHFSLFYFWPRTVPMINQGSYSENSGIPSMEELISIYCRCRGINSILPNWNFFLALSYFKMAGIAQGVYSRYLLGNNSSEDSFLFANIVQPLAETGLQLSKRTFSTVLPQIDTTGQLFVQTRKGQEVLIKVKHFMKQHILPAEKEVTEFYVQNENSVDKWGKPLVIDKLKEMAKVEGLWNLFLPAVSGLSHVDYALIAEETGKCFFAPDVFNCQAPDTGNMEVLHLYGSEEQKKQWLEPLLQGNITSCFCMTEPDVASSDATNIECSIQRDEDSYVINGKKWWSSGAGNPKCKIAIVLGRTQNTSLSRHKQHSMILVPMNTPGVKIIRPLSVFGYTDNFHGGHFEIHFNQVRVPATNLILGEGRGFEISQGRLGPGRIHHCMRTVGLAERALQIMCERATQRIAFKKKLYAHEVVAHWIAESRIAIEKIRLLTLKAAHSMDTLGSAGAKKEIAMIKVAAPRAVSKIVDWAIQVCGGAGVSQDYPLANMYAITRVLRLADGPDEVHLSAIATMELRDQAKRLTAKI

[2] = target: Protein kinase C alpha type (Homo sapiens, UniProt P17252)
[3] = target: Rho-associated protein kinase 2 (Homo sapiens, UniProt O75116)
[4] = target: Mitogen-activated protein kinase 7 (Homo sapiens, UniProt Q13164)
[5] = target: T2, Exosome RNA helicase MTR4 (Homo sapiens, UniProt P42285)
T2 sequence (P42285 whole entry): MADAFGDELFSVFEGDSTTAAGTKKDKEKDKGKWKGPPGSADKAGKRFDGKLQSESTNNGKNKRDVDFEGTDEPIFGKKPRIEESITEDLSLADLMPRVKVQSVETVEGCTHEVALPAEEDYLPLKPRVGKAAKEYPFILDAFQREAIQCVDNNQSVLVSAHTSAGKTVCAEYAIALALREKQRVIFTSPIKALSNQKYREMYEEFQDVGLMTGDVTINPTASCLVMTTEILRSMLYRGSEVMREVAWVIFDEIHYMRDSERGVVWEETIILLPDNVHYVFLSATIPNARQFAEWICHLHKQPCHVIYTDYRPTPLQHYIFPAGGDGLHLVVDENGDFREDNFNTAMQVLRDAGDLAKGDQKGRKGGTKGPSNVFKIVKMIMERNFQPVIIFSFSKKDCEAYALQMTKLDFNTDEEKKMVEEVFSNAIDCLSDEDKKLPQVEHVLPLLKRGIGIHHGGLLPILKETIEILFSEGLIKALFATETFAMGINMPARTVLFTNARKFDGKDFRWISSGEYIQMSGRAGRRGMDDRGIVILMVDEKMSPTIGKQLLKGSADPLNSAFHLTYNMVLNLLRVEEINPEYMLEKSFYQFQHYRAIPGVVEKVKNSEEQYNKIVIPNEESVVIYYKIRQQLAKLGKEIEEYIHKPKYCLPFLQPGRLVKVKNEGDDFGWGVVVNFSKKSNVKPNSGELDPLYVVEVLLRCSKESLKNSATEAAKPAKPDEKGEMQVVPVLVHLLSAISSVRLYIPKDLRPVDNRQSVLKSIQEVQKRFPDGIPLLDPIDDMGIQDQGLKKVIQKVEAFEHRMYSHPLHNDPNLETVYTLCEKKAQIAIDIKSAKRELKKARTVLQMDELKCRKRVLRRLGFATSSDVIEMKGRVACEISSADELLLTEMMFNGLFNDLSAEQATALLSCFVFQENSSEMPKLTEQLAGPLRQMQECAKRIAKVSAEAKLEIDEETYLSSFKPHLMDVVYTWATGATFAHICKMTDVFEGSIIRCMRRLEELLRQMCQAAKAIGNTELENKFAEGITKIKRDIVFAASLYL

[6] = target: T3, cGMP-dependent protein kinase 1 (Homo sapiens, UniProt Q13976)
T3 sequence (Q13976 whole entry): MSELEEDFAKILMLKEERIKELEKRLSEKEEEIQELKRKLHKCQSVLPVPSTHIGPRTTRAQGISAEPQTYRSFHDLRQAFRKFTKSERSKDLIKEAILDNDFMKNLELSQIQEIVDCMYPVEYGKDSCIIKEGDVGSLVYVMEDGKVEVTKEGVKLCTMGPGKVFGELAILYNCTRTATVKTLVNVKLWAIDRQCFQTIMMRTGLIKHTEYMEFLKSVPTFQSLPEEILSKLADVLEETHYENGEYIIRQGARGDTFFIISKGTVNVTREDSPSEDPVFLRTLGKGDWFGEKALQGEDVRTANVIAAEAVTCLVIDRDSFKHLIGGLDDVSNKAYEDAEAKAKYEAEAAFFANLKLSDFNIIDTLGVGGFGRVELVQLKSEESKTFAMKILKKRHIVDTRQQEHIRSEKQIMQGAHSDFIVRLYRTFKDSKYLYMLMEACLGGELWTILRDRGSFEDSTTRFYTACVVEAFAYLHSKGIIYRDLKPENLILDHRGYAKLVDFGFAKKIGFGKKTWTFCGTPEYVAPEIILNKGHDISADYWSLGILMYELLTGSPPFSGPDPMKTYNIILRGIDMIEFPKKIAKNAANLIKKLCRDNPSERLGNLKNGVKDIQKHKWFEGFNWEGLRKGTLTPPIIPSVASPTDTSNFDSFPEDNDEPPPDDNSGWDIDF
Further: in the data inactive means no Kd found up to 30 µM.

Chain of Rho-associated protein kinase 2 (O75116 whole entry): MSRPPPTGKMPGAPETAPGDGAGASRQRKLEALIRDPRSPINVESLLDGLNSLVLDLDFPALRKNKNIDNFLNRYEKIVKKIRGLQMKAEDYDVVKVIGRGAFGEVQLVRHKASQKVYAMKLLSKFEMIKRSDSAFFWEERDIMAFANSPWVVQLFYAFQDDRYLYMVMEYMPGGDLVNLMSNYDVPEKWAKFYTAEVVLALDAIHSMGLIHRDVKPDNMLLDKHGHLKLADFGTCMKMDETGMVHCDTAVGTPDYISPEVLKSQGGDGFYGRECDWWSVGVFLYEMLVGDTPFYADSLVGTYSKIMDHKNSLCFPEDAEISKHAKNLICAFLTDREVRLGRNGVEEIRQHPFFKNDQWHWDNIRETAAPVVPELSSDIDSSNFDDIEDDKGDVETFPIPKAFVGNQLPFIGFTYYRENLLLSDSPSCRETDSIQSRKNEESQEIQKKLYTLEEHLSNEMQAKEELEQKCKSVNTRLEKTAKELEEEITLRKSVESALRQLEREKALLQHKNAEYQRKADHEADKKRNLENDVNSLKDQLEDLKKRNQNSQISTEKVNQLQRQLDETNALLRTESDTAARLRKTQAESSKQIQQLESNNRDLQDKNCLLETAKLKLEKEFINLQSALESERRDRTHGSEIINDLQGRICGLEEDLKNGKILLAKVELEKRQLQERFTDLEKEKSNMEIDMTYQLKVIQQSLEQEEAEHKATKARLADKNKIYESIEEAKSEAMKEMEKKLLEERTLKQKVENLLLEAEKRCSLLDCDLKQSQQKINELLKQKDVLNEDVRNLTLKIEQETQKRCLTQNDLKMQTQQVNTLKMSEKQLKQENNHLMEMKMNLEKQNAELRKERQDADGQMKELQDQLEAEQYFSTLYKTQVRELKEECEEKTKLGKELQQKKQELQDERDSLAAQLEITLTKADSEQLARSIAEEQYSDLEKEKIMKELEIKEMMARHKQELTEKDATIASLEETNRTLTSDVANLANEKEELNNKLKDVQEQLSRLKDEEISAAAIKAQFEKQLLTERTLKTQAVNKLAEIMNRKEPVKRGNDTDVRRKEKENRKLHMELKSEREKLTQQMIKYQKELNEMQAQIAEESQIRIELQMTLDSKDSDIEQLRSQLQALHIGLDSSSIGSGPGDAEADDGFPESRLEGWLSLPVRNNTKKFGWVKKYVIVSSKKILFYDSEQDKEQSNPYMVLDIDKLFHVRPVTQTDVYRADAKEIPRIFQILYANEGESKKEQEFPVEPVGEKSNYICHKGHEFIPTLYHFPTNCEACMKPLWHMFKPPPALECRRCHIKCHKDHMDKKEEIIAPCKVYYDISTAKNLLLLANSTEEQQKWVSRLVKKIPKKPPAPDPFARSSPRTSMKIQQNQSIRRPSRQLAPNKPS
Chain of Mitogen-activated protein kinase 7 (Q13164 whole entry): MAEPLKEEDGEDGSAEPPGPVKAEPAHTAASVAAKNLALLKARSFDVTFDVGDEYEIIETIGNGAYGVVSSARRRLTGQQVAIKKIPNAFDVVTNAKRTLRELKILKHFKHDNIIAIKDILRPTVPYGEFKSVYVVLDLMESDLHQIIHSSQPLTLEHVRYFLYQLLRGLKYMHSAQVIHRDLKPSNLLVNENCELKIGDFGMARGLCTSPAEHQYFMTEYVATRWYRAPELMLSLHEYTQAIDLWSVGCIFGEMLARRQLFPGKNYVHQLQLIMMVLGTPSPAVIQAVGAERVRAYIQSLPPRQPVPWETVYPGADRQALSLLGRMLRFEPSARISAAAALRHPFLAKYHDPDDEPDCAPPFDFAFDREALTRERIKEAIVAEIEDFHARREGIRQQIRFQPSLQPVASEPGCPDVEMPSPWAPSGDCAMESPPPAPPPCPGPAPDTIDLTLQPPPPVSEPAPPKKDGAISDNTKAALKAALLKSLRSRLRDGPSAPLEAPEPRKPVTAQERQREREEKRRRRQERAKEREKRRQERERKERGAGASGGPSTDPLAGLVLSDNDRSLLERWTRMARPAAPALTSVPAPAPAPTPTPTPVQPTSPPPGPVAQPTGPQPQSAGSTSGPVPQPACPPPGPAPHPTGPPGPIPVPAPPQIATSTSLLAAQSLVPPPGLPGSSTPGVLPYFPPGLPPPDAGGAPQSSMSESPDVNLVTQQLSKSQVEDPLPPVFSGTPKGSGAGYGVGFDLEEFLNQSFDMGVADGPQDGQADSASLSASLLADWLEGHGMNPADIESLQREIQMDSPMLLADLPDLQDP

Row | Structure (SMILES) | Kd [1] | Kd [2] | Kd [3] | Kd [4] | Kd [5] | Kd [6]
1 | Cc1ccc(NC(=O)c2ccc(CN3CC[C@H](N(C)C)C3)c(C(F)(F)F)c2)cc1Nc1nccc(-c2cncnc2)n1 [BAFETINIB] | > 30 µM (inactive) | > 30 µM (inactive) | > 30 µM (inactive) | > 30 µM (inactive) | > 30 µM (inactive) | > 30 µM (inactive)
2 | CCS(=O)(=O)N1CC(CC#N)(n2cc(-c3ncnc4[nH]ccc34)cn2)C1 [BARICITINIB] | > 30 µM (inactive) | 2.07 µM (active) | 0.756 µM (active) | > 30 µM (inactive) | > 30 µM (inactive) | > 30 µM (inactive)
3 | Cc1cc2c(F)c(Oc3ncnn4cc(OC[C@@H](C)OC(=O)[C@H](C)N)c(C)c34)ccc2[nH]1 [BRIVANIB ALANINATE] | > 30 µM (inactive) | > 30 µM (inactive) | > 30 µM (inactive) | > 30 µM (inactive) | > 30 µM (inactive) | > 30 µM (inactive)
4 | CNC(=O)c1ccc(-c2cnc3ncc(Cc4ccc5ncccc5c4)n3n2)cc1F [CAPMATINIB] | > 30 µM (inactive) | > 30 µM (inactive) | > 30 µM (inactive) | > 30 µM (inactive) | > 30 µM (inactive) | > 30 µM (inactive)
5 | O=C(c1ccc(F)c(F)c1Nc1ccc(I)cc1F)N1CC(O)([C@@H]2CCCCN2)C1 [COBIMETINIB] | > 30 µM (inactive) | > 30 µM (inactive) | > 30 µM (inactive) | > 30 µM (inactive) | > 30 µM (inactive) | > 30 µM (inactive)
6 | CCc1cnn2c(NCc3ccc[n+]([O-])c3)cc(N3CCCC[C@H]3CCO)nc12 [DINACICLIB] | > 30 µM (inactive) | > 30 µM (inactive) | > 30 µM (inactive) | > 30 µM (inactive) | > 30 µM (inactive) | > 30 µM (inactive)
7 | COC(=O)N[C@@H](C)CNc1nccc(-c2cn(C(C)C)nc2-c2cc(Cl)cc(NS(C)(=O)=O)c2F)n1 [ENCORAFENIB] | > 30 µM (inactive) | > 30 µM (inactive) | > 30 µM (inactive) | > 30 µM (inactive) | > 30 µM (inactive) | > 30 µM (inactive)
8 | CO[C@H]1C[C@@H]2CC[C@@H](C)[C@@](O)(O2)C(=O)C(=O)N2CCCC[C@H]2C(=O)O[C@H]([C@H](C)C[C@@H]2CC[C@@H](OCCO)[C@H](OC)C2)CC(=O)[C@H](C)/C=C(\C)[C@@H](O)[C@@H](OC)C(=O)[C@H](C)C[C@H](C)/C=C/C=C/C=C/1C [EVEROLIMUS] | > 30 µM (inactive) | > 30 µM (inactive) | > 30 µM (inactive) | > 30 µM (inactive) | > 30 µM (inactive) | > 30 µM (inactive)
9 | COCCNCc1ccc(-c2cc3nccc(Oc4ccc(NC(=S)NC(=O)Cc5ccc(F)cc5)cc4F)c3s2)nc1 [GLESATINIB] | > 30 µM (inactive) | > 30 µM (inactive) | > 30 µM (inactive) | > 30 µM (inactive) | > 30 µM (inactive) | > 30 µM (inactive)
10 | CC[C@H](Nc1ncnc2[nH]cnc12)c1nc2cccc(F)c2c(=O)n1-c1ccccc1 [IDELALISIB] | > 30 µM (inactive) | > 30 µM (inactive) | > 30 µM (inactive) | > 30 µM (inactive) | > 30 µM (inactive) | > 30 µM (inactive)
11 | COc1cc2nccc(Oc3ccc(NC(=O)NC4CC4)c(Cl)c3)c2cc1C(N)=O [LENVATINIB] | > 30 µM (inactive) | > 30 µM (inactive) | > 30 µM (inactive) | > 30 µM (inactive) | > 30 µM (inactive) | > 30 µM (inactive)
12 | Cc1c(F)cc(C(=O)NC2CC2)cc1-c1ccc(C(=O)NCC(C)(C)C)cn1 [LOSMAPIMOD] | > 30 µM (inactive) | > 30 µM (inactive) | > 30 µM (inactive) | > 30 µM (inactive) | > 30 µM (inactive) | > 30 µM (inactive)

Continued, values first:

Row | Kd [1] | Kd [2] | Kd [3] | Kd [4] | Kd [5] | Kd [6] | Structure (SMILES)
13 | > 30 µM (inactive) | > 30 µM (inactive) | > 30 µM (inactive) | > 30 µM (inactive) | > 30 µM (inactive) | > 30 µM (inactive) | Cc1cc([C@@H](C)Nc2ccccc2C(=O)O)c2nc(N3CCOCC3)cc(=O)n2c1 [AZD-6482]
14 | > 30 µM (inactive) | > 30 µM (inactive) | > 30 µM (inactive) | > 30 µM (inactive) | > 30 µM (inactive) | > 30 µM (inactive) | COc1ccc(-c2ccc3c(N4CCOC[C@@H]4C)nc(N4CCOC[C@@H]4C)nc3n2)cc1CO [AZD-8055]
15 | > 30 µM (inactive) | > 30 µM (inactive) | > 30 µM (inactive) | > 30 µM (inactive) | > 30 µM (inactive) | > 30 µM (inactive) | C[C@@H](Nc1cc(F)cc(F)c1)c1cc(C(=O)N(C)C)cc2c(=O)cc(N3CCOCC3)oc12 [AZD-8186]
16 | > 30 µM (inactive) | > 30 µM (inactive) | > 30 µM (inactive) | > 30 µM (inactive) | > 30 µM (inactive) | > 30 µM (inactive) | O=C1NC(=O)/C(=C/c2ccc3nccc(-c4ccncc4)c3c2)S1 [GSK-1059615]
17 | > 30 µM (inactive) | > 30 µM (inactive) | > 30 µM (inactive) | > 30 µM (inactive) | > 30 µM (inactive) | > 30 µM (inactive) | Cn1cc(-c2ccc3nnc(C(F)(F)c4ccc5ncccc5c4)n3n2)cn1 [JNJ-38877605]
18 | > 30 µM (inactive) | > 30 µM (inactive) | > 30 µM (inactive) | > 30 µM (inactive) | > 30 µM (inactive) | > 30 µM (inactive) | Cn1cc(-c2ccc(F)c(C(F)(F)F)c2)nc1C1CCN(c2ncnc3[nH]ncc23)CC1 [LY-2584702]
19 | > 30 µM (inactive) | > 30 µM (inactive) | > 30 µM (inactive) | > 30 µM (inactive) | > 30 µM (inactive) | > 30 µM (inactive) | O=C(O)[C@]1(Cc2cccc(Nc3nccs3)n2)CC[C@@H](Oc2cccc(Cl)c2F)CC1 [MK-5108]
20 | > 30 µM (inactive) | > 30 µM (inactive) | > 30 µM (inactive) | > 30 µM (inactive) | > 30 µM (inactive) | > 30 µM (inactive) | OCCn1cc(-c2cnc3nnn(Cc4ccc5ncccc5c4)c3n2)cn1 [PF-04217903]

Source: ChEMBL document CHEMBL3991601, “The target landscape of clinical kinase drugs” (Science, 2017)
